Laboratory results from paper PMC3388095, “Fluorophore Labeled Kinase Detects Ligands That Bind within the MAPK Insert of p38α Kinase” (PLoS ONE, 2012).

Experiments:
Experiment in all cases: Kinase selectivity profile, 33P-ATP filter-binding assay
Assay type in all cases: biochemical
BTK = BTK (Homo sapiens, UniProt Q06187)
Method in brief: (§1)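 95-kinase panel; compound 10 µM; 33P-ATP filter-binding readout; data = % residual kinase activity.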

CK2 = CK2 (Homo sapiens, UniProt P68400)
Method in brief: as §1

EPH A2 = EPH A2 (Homo sapiens, UniProt P29317)
Method in brief: as §1

ERK2 = ERK2 (Homo sapiens, UniProt P28482)
Method in brief: as §1

ERK8 = ERK8 (Homo sapiens, UniProt Q8TD08)
Method in brief: as §1

FGF-R1 = FGF-R1 (Homo sapiens, UniProt P11362)
Method in brief: as §1

GSK3β = GSK3β (Homo sapiens, UniProt P49841)
Method in brief: as §1

HIPK1 = HIPK1 (Homo sapiens, UniProt Q86Z02)
Method in brief: as §1

IKKε = IKKε (Homo sapiens, UniProt Q14164)
Method in brief: as §1

IR-HIS = IR-HIS (Homo sapiens, UniProt P06213)
Method in brief: as §1

JNK2 = JNK2 (Homo sapiens, UniProt P45984)
Method in brief: as §1

JNK3 = JNK3 (Homo sapiens, UniProt P53779)
Method in brief: as §1

LKB1 = LKB1 (Homo sapiens, UniProt Q15831)
Method in brief: as §1

MARK4 = MARK4 (Homo sapiens, UniProt Q96L34)
Method in brief: as §1

MLK3 = MLK3 (Homo sapiens, UniProt Q16584)
Method in brief: as §1

MNK2 = MNK2 (Homo sapiens, UniProt Q9HBH9)
Method in brief: as §1

MST2 = MST2 (Homo sapiens, UniProt Q13188)
Method in brief: as §1

PAK6 = PAK6 (Homo sapiens, UniProt Q9NQU5)
Method in brief: as §1

PDK1 = PDK1 (Homo sapiens, UniProt O15530)
Method in brief: as §1

PIM1 = PIM1 (Homo sapiens, UniProt P11309)
Method in brief: as §1

PKCα = PKCα (Homo sapiens, UniProt P17252)
Method in brief: as §1

PKD1 = PKD1 (Homo sapiens, UniProt Q15139)
Method in brief: as §1

RIPK2 = RIPK2 (Homo sapiens, UniProt O43353)
Method in brief: as §1

SGK1 = SGK1 (Homo sapiens, UniProt O00141)
Method in brief: as §1

SmMLCK = SmMLCK (Homo sapiens, UniProt Q15746)
Method in brief: as §1

VEG-FR = VEG-FR (Homo sapiens, UniProt P17948)
Method in brief: as §1

p38δ MAPK = p38δ MAPK (Homo sapiens, UniProt O15264)
Method in brief: as §1

MARK4, sequence (Q96L34 whole entry): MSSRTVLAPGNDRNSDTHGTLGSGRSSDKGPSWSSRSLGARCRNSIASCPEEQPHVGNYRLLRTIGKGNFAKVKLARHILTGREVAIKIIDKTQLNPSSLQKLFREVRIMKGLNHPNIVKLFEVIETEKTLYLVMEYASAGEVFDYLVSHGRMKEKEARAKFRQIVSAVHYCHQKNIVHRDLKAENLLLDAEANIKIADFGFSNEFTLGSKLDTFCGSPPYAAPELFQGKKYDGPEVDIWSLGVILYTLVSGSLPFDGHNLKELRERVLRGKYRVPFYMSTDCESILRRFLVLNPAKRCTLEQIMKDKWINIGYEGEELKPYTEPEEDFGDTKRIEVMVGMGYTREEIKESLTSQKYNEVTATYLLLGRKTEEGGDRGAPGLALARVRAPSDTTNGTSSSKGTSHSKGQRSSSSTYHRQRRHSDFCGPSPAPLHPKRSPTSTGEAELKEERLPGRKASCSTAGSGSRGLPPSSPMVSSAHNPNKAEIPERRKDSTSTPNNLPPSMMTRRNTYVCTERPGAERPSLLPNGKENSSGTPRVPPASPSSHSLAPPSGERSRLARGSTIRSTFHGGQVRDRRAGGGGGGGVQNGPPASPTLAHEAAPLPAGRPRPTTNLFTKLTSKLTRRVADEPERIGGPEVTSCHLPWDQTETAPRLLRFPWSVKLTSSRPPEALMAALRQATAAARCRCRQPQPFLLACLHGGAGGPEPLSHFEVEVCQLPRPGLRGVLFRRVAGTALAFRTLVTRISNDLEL
FGF-R1, sequence (P11362 22-822): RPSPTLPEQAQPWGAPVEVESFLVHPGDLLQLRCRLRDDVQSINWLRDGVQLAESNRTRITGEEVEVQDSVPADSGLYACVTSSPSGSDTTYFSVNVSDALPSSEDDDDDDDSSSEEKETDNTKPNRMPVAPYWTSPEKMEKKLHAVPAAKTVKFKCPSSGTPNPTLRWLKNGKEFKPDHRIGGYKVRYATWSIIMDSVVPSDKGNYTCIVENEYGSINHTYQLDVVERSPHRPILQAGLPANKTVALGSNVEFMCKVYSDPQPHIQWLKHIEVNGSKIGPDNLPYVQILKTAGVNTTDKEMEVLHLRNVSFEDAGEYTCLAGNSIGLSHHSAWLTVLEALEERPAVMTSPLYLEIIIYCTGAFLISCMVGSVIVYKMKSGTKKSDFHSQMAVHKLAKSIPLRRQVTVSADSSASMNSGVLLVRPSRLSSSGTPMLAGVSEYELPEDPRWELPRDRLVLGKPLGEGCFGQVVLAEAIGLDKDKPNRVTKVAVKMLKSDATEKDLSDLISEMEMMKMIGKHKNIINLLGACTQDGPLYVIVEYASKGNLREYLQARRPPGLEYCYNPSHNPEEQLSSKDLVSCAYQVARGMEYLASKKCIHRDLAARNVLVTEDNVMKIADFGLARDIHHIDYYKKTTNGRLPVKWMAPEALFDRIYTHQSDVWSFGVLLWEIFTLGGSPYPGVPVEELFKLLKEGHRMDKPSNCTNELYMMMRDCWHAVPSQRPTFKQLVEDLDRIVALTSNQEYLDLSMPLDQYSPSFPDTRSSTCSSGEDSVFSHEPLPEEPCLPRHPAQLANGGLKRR
ERK8, sequence (Q8TD08 whole entry): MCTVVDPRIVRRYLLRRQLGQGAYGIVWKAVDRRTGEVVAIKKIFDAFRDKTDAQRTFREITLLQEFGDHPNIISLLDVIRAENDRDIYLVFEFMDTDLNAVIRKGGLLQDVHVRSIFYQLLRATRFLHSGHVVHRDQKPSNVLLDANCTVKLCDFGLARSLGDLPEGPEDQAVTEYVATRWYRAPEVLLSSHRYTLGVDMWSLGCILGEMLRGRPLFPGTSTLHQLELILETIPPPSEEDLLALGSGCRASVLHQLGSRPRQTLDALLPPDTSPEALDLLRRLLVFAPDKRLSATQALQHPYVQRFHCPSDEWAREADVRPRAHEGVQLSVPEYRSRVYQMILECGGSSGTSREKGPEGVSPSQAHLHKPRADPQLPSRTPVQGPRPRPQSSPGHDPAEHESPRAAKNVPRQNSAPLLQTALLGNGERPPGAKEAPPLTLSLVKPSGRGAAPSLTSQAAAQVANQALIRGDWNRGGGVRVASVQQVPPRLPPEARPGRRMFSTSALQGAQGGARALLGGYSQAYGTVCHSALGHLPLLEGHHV
LKB1, sequence (Q15831 whole entry): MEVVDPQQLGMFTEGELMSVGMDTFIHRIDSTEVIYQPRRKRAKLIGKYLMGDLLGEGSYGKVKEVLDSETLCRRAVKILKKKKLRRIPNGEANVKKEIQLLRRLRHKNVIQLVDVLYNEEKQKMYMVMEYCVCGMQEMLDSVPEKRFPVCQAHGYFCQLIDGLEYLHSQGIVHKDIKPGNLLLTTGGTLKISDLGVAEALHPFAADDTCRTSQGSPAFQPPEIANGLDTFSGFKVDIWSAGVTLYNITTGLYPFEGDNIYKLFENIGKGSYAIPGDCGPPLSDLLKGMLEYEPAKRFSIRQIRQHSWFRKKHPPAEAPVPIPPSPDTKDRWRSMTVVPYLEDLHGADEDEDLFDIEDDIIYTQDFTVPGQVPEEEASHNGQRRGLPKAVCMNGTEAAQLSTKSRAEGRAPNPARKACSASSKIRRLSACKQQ
LKB1, sequence (Q7RTN6 whole entry partner): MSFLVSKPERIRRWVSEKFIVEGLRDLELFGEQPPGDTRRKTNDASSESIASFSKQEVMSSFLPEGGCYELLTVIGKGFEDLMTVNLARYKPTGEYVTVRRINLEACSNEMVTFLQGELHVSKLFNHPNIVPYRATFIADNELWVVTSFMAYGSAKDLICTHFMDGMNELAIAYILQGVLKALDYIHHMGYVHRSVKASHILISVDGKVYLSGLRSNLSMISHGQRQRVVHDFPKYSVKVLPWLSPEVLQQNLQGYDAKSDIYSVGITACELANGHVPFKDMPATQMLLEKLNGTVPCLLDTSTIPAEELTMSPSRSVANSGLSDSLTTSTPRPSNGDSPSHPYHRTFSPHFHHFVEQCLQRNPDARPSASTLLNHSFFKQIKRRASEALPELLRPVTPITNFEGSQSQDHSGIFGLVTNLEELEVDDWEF
LKB1, sequence (Q9Y376 whole entry partner): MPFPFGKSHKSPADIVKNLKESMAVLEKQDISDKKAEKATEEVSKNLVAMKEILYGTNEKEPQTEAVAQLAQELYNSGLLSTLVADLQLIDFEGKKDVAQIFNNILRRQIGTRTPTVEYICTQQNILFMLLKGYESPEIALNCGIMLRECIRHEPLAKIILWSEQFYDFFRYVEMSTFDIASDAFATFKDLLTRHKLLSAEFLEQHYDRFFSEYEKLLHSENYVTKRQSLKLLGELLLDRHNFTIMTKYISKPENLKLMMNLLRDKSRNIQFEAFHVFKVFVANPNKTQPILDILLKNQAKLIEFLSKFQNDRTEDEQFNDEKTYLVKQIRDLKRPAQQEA
PKD1, sequence (Q15139 whole entry): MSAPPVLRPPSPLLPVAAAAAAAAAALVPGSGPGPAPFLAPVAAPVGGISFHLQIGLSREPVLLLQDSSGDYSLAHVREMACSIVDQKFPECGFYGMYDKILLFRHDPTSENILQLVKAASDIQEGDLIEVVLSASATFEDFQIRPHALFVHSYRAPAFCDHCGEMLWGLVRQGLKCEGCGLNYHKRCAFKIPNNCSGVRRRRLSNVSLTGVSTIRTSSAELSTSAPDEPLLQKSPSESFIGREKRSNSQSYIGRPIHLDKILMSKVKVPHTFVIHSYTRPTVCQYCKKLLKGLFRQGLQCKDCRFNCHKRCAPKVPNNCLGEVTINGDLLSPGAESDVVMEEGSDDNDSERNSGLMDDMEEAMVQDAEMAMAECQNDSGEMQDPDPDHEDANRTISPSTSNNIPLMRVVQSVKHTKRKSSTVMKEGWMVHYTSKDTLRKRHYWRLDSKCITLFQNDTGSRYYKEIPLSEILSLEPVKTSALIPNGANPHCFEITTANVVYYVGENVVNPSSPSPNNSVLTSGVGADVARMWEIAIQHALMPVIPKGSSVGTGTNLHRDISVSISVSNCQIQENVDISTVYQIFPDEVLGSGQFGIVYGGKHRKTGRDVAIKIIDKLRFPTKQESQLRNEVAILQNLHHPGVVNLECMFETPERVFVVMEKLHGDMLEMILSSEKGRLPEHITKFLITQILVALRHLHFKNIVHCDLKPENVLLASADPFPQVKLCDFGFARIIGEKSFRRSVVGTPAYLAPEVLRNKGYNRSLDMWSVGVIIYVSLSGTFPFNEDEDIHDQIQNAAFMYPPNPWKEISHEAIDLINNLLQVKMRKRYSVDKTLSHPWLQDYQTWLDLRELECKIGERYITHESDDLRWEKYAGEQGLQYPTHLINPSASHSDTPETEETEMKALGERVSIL
RIPK2, sequence (O43353 whole entry): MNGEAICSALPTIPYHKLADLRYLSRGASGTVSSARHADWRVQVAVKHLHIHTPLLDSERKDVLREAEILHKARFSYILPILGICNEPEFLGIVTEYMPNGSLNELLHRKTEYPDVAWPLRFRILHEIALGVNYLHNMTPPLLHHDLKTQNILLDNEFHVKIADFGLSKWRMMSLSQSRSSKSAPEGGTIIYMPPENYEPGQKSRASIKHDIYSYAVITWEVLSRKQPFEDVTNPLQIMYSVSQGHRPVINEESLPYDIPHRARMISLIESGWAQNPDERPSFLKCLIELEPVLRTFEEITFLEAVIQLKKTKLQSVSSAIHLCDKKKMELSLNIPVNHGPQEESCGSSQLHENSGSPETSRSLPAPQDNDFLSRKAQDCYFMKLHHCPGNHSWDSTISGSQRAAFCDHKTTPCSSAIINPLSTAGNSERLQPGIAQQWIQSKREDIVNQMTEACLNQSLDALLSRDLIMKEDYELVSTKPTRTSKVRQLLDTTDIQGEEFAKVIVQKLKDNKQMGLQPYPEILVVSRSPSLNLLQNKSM

Nc1ccc2c(NC3CC3)nc(-c3ccccc3)nc2c1 [1b, N^4-Cyclopropyl-2-phenyl-4,7-quinazolinediamine]
remaining activity at 10 µM (BTK): 87% | remaining activity at 10 µM (CK2): 85% | remaining activity at 10 µM (EPH A2): 85% | remaining activity at 10 µM (ERK2): 98% | remaining activity at 10 µM (ERK8): 91% | remaining activity at 10 µM (FGF-R1): 99% | remaining activity at 10 µM (GSK3β): 80% | remaining activity at 10 µM (HIPK1): 87% | remaining activity at 10 µM (IKKε): 89% | remaining activity at 10 µM (IR-HIS): 87% | remaining activity at 10 µM (JNK2): 101% | remaining activity at 10 µM (JNK3): 88% | remaining activity at 10 µM (LKB1): 98% | remaining activity at 10 µM (MARK4): 93% | remaining activity at 10 µM (MLK3): 98% | remaining activity at 10 µM (MNK2): 67% | remaining activity at 10 µM (MST2): 87% | remaining activity at 10 µM (PAK6): 92% | remaining activity at 10 µM (PDK1): 100% | remaining activity at 10 µM (PIM1): 82% | remaining activity at 10 µM (PKCα): 96% | remaining activity at 10 µM (PKD1): 79% | remaining activity at 10 µM (RIPK2): 94% | remaining activity at 10 µM (SGK1): 92% | remaining activity at 10 µM (SmMLCK): 83% | remaining activity at 10 µM (VEG-FR): 95% | remaining activity at 10 µM (p38δ MAPK): 81%
